Measurements: ChEMBL document CHEMBL5390231, “Development of small molecule inhibitors targeting RNA helicase DHX33 as anti-cancer agents” (Bioorg Med Chem Lett, 2023)

Columns and labels:
[1] = molecular target: T1, Nucleolar RNA helicase 2 (Homo sapiens, UniProt Q9NR30); experiment: Inhibition of N-terminal thioredoxin-tagged human recombinant DDX21 transformed in Escherichia coli BL21(DE3)pLysS cells
T1 sequence (Q9NR30 whole entry): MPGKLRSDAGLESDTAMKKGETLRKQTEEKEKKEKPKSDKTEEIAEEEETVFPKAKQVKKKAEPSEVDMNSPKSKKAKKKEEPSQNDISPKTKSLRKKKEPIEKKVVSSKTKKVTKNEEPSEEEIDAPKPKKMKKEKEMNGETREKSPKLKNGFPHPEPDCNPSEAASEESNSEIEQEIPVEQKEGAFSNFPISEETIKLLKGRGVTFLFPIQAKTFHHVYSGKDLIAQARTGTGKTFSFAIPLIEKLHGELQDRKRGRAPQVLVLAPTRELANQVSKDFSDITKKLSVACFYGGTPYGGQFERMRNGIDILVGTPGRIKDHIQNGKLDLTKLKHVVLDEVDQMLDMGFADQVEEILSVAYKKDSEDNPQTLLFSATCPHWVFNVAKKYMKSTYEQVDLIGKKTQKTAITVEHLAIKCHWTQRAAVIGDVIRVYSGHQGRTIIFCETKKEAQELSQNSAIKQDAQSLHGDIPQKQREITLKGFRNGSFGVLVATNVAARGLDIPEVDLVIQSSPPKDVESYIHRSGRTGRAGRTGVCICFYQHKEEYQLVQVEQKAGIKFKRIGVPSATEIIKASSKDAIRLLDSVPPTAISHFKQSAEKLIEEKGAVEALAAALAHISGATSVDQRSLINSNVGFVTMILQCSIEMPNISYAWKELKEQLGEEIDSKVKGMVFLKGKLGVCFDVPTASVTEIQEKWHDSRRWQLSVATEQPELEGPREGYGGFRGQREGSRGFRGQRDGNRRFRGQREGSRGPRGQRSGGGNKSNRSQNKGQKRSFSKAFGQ

[2] = molecular target: T2, Putative pre-mRNA-splicing factor ATP-dependent RNA helicase DHX32 (Homo sapiens, UniProt Q7L7V1); experiment: Inhibition of N-terminal thioredoxin-tagged human recombinant DHX32 transformed in Escherichia coli BL21(DE3)pLysS cells
T2 sequence (Q7L7V1 whole entry): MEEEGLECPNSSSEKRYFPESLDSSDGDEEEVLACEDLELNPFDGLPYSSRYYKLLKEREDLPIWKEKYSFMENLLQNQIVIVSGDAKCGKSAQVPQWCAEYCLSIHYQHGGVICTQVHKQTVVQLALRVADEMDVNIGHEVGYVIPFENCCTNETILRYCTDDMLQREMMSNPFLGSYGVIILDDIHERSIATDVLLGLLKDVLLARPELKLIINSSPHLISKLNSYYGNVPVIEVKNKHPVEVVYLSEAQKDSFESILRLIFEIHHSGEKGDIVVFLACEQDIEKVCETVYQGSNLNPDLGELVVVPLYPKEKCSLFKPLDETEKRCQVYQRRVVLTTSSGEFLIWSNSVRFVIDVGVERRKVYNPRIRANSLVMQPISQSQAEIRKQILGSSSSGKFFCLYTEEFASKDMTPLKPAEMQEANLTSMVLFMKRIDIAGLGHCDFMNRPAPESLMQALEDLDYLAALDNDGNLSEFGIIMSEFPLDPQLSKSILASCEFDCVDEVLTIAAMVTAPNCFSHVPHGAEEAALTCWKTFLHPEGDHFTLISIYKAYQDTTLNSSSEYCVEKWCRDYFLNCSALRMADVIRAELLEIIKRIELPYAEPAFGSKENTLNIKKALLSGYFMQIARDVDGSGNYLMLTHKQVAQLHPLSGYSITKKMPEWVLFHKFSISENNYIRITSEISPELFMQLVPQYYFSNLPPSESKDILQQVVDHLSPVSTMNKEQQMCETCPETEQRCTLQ

[3] = molecular target: ATP-dependent RNA helicase DHX15 (Homo sapiens, UniProt O43143); experiment: Inhibition of N-terminal thioredoxin-tagged human recombinant DHX15 transformed in Escherichia coli BL21(DE3)pLysS cells
[4] = Microsomal stability in human liver microsome assessed as intrinsic clearance; assay type: ADME; details: liver microsomes, read-out: CLH
[5] = molecular target: T3, ATP-dependent RNA helicase DHX33 (Mus musculus, UniProt Q80VY9); experiment: Inhibition of N-terminal/C-terminal 6x His-tagged wild type recombinant mouse DHX33 transformed in Escherichia coli BL21(DE3)pLysS cells
T3 sequence (Q80VY9 whole entry): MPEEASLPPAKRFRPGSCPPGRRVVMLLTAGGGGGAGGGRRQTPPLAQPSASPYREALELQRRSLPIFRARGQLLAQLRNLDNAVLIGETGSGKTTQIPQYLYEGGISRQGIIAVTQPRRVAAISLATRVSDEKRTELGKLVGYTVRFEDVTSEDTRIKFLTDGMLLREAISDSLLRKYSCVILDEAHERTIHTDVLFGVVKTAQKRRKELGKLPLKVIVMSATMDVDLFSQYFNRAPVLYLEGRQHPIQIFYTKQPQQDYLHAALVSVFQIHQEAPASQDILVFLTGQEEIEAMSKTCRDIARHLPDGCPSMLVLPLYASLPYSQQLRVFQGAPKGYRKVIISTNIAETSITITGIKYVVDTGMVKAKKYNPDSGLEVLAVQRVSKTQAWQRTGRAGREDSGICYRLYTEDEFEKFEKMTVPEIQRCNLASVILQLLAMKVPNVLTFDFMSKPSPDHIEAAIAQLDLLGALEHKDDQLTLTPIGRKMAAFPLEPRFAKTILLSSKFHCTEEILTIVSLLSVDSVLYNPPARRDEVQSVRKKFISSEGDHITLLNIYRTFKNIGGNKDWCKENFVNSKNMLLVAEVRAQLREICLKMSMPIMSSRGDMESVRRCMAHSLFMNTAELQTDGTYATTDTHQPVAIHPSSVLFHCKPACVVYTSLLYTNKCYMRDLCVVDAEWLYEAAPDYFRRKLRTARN

[6] = tested on: U-251; experiment: Antiproliferative activity against human U-251MG cells overexpressing DHX33 assessed as inhibition of cell growth measured after 48 hrs by CCK-8 assay; assay type: functional, cell-based; details: U-251, 48 h

Chain of ATP-dependent RNA helicase DHX15 (O43143 whole entry): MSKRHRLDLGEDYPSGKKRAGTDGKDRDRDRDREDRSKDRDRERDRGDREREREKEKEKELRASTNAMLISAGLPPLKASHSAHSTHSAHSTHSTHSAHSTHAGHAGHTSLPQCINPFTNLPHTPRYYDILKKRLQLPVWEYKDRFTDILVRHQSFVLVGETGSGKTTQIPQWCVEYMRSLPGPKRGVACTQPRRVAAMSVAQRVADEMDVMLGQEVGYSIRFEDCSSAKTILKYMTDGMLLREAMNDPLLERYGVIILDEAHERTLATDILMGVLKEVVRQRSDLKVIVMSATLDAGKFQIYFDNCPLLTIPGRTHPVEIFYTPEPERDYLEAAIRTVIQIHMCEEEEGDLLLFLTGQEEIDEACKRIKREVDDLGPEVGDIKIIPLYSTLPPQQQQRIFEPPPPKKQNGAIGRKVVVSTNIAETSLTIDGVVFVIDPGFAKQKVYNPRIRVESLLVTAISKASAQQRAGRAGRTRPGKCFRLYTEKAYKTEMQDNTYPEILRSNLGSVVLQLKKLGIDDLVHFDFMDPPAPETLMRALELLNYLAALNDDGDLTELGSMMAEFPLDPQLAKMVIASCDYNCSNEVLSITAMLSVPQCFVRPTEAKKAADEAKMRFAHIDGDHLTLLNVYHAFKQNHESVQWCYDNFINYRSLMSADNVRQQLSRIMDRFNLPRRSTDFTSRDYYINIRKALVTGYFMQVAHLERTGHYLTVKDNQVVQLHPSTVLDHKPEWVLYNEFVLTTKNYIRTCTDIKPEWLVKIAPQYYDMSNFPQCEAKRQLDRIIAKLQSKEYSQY

- IC50 [1]: > 100 µM
- IC50 [2]: > 100 µM
- IC50 [3]: 6.3 µM
- CLint scaled [4]: 1.34 L/h/kg
- IC50 [5]: 0.019 µM
- IC50 [6]: 0.02 µM
Structure (SMILES): COc1ccc2nc(NC(=O)c3cc(C)n(-c4sc(C)cc4C#N)c3C)[nH]c2c1
